Source: patent US20090298811A1, “BENZIMIDAZOLONE DERIVATIVES” (Pfizer Inc, priority 2006, published 2009)

How the values were obtained:
human CB1 receptor [1] = biological target: T1, human CB1 receptor (Homo sapiens, UniProt P21554); assay: Human CB1 receptor binding, [3H] CP-55,940 displacement on HEK cell membranes; parameters: expressed in transfected cells; membranes; conditions: [3H] CP-55,940 500 pM
Experimental: The Human CB1 receptor binding affinity and other biological activities of the compounds of this invention are determined by the following procedures.
Membrane preparation: Human Embryonic Kidney (HEK) Cells expressing the human CB1 receptor under transcriptional regulation of a tetracycline inducible promoter were grown in Dulbecco's Modified Essential Medium with sodium pyruvate (Invitrogen, Carlsbad, Calif.) containing 10% tetracycline free fetal bovine serum (Clonetech, Mountain View, Calif.) 100 μg/ml hygromycin (Calbiochem, San Diego, Calif.), 5 μg/ml blasticidin (Invitrogen). CB1 receptor expression was induced by addition of 1 μg/ml doxycycline (Calbiochem) and incubation for an additional 24 hours. Cells were released from flasks using Cell Dissociation Buffer (Invitrogen). Cells were pelleted by centrifugation at 500×G for 5 minutes. Membranes were prepared by resuspending cells in ice cold TEE Buffer (25 mM Tris pH 7.4, 5 mM EDTA, 5 mM EGTA, Complete Protease Inhibitor (Roche, Basel, Switzerland)). Cells were lysed with 12 strokes of a dounce homogenizer. Unlysed cells were pelleted by centrifugation at 500×G for 5 minutes. Membranes were pelleted by centrifugation at 25,000×G for 30 minutes. Membranes were resuspended in TEE, dounced 12 strokes, and pelleted a second time at 25,000×G for 30 minutes. Membrane pellet was resuspended in 50 mM Tris pH 7.4, 100 mM NaCl, 3 mM MgCl2, 0.2 mM EGTA, Complete Protease Inhibitor (Roche). Protein concentration was determined using the Micro-BCA Protein Assay Kit (Pierce, Rockford, Ill.) using BSA as a standard. Membranes were quick frozen and stored at −80 degrees Celsius until use. Binding experiments: 50 μl of test compound was incubated with 50 μl, of [^3H] CP-55,940 (Perkin Elmer, Boston, Mass.) (final concentration 500 pM) and 150 μl of membrane homogenate (1 μg/well) in polypropylene 96-well plates (Corning, Acton, Mass.). Final reaction conditions were 50 mM Tris pH 7.4, 100 mM NaCl, 3 mM MgCl2, 0.2 mM EGTA, 0.04% BSA. Nonspecific binding was determined by incubation with 50 μM WIN-55,212-2 (Tocris, Ellisville, Mo.). After incubation at room temperature for 60 minutes reactions were harvested by vacuum filtration through Unifilter GF/B-96 filters (Perkin Elmer) that had been presoaked in assay buffer containing 0.5% BSA (Sigma, St. Louis, Mo.) using a FilterMate Plate Harvester (Perkin Elmer). Filters were rinsed 4 times with 50 mM Tris pH 7.4, 0.025% Tween20 and dried at 50 degrees Celsius for at least 30 minutes. 40 μl of Microscint-20 (Perkin Elmer) was added per well, and plates were counted using a Top-Count Microplate Scintillation Counter (Perkin Elmer). Binding data were analyzed and EC50 and Ki values calculated using Graph Pad Prism 4.0 Software.

human CB1 receptor [2] = biological target: T1, human CB1 receptor; assay: GTPγS binding on membranes of CHO cells expressing the human CB1 receptor; format: biochemical; parameters: expressed in transfected cells; host or cells: CHO cells (G418 selection); membranes; conditions: CHO cell membranes, [35S] GTPγS
Experimental: Membrane preparation: CHO cells expressing the human CB1 receptor were grown to 80% confluence in Ham's F-12 Nutrient Medium (Invitrogen) containing 10% fetal bovine serum (Invitrogen), 1% pen/strep (Invitrogen), 1% Nonessential amino acids (Invitrogen) and 500 μg/ml G418 (Invitrogen). Cells were released from flasks using Cell Dissociation Buffer (Invitrogen). Cells were pelleted by centrifugation at 500×G for 5 minutes. Membranes were prepared by resuspending cells in ice cold Assay Buffer (25 mM Tris pH 7.4, 5 mM EDTA, 5 mM EGTA, Complete Protease Inhibitor (Roche)). Cells were lysed with 12 strokes of a dounce homogenizer. Unlysed cells were pelleted by centrifugation at 500×G for 5 minutes. Membranes were pelleted by centrifugation at 25,000×G for 30 minutes. Membranes were resuspended in TEE, dounced 12 strokes, and pelleted a second time at 25,000×G for 30 minutes. Membrane pellet was resuspended in 50 mM Tris pH 7.4, 100 mM NaCl, 3 mM MgCl2, 0.2 mM EGTA, Complete Protease Inhibitor (Roche). Protein concentration was determined using the Micro-BCA Protein Assay Kit (Pierce) using BSA as a standard. Membranes were frozen and stored at −80 degrees Celsius until use. GTPγS Binding: 40 μl of test compound was incubated with 20 μl of [^35S] GTPγS (Perkin Elmer) (1250 Ci/millimole) and 140 μl of membrane homogenate (5 ug/well) in polypropylene 96-well plates (Corning). Final reaction conditions were 50 mM Tris pH 7.4, 100 mM NaCl, 3 mM […], 0.2 mM EGTA, 0.04% BSA. After incubation at 37 degrees Celsius for 45 minutes reactions were harvested by vacuum filtration through Unifilter GF/B-96 filters (Perkin Elmer) using a FilterMate Plate Harvester (Perkin Elmer). Filters were rinsed 4 times with ice cold 50 mM Tris pH 7.4, 3 mM MgCl2, 0.2 mM EGTA and dried at 50 degrees Celsius for at least 30 minutes. 40 μl of Microscint-20 (Perkin Elmer) was added per well, and plates were counted using a Top-Count Microplate Scintillation Counter (Perkin Elmer). Binding data were analyzed and EC50 values were calculated using Graph Pad Prism 4.0 Software.

T1 sequence (P21554 whole entry): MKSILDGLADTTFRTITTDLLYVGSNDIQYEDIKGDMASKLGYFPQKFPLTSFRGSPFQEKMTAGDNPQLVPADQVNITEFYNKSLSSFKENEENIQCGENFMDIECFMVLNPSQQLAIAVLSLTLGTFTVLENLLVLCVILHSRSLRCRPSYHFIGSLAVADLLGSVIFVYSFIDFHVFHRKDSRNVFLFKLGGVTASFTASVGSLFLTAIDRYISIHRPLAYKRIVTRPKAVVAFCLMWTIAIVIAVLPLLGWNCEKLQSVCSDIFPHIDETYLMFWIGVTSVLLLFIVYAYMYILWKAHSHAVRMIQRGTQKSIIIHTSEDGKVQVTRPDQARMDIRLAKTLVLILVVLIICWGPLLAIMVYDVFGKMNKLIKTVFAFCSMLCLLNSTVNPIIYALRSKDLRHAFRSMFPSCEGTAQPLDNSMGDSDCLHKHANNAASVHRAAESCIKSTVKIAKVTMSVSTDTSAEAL

Row | SMILES | Ki (human CB1 receptor [1]) | EC50 (human CB1 receptor [2])
1 | O=C(N[C@H]1c2ccccc2C[C@H]1O)n1c(=O)n(CC2CCCCC2)c2ccccc21 [Example 188] | 1.9 nM | 87.7 nM
2 | CN(C)CC(C)(C)CNC(=O)n1c(=O)n(CC2CCCCC2)c2ccccc21 [Example 182] | 17 nM | 267 nM
3 | CC(C)(C)[C@H](NC(=O)n1c(=O)n(CC2CCOCC2)c2ccccc21)C(=O)NC[C@H](O)CO [Example 345] | 52.8 nM | 1150 nM
4 | CC(C)(C)[C@H](NC(=O)n1c(=O)n(CC2CCOCC2)c2cc(F)ccc21)c1nnc(N)o1 [Example 347] | 9.5 nM | 229 nM
5 | CC(C)(C)[C@H](NC(=O)n1c(=O)n(CCC2CCC2)c2ccccc21)C(N)=O [Example 217] | 1.28 nM | 3.2 nM
6 | O=C(N[C@H]1c2ccccc2C[C@H]1O)n1c(=O)n(CC2CCC2)c2ccccc21 [Example 189] | 88.4 nM | 1020 nM
7 | Cc1nc(C(F)(F)F)c(CNC(=O)n2c(=O)n(CC3CCOCC3)c3ccccc32)s1 [Example 349] | 19.1 nM | 157 nM
8 | O=C(N[C@H]1c2ccccc2C[C@H]1O)n1c(=O)n(CC2CCOCC2)c2ccccc21 [Example 280] | 31 nM | 136 nM
9 | CC(C)(C)[C@H](NC(=O)n1c(=O)n(CC2CCCCC2)c2ccc(F)cc21)C(N)=O [Example 165] | 0.82 nM | 27.4 nM
10 | CC(C)(C)[C@H](NC(=O)n1c(=O)n(CCCCC#N)c2ccccc21)C(N)=O [Example 223] | 102 nM | 1860 nM
11 | CC(C)(C)[C@H](NC(=O)n1c(=O)n(CC2CCCCC2)c2ccccc21)C(N)=O [Example 200] | 0.52 nM | 96.9 nM
12 | CC(C)(C)[C@H](NC(=O)n1c(=O)n(CC2CCC(F)(F)CC2)c2ccccc21)C(N)=O [Example 306] | 0.31 nM | 3.45 nM
13 | Cc1cc(CNC(=O)n2c(=O)n(CC3CCOCC3)c3ccccc32)c(C)o1 [Example 311] | 2.03 nM | 57 nM
14 | CC(C)(C)[C@H](NC(=O)n1c(=O)n(CCCC(F)(F)F)c2ccccc21)C(N)=O [Example 293] | 1.45 nM | 32.4 nM
15 | O=C(NCc1ccoc1)n1c(=O)n(CC2CCOCC2)c2ccccc21 [Example 329] | 28 nM | 606 nM
16 | CC(C)(C)[C@H](NC(=O)n1c(=O)n(CC2CCC2)c2ccccc21)C(N)=O [Example 201] | 4.94 nM | 45.3 nM
17 | CC(C)(C)[C@H](NC(=O)n1c(=O)n(Cc2ccc(F)cc2)c2ccccc21)C(N)=O [Example 363] | 0.36 nM | 4.74 nM
18 | CCCCCn1c(=O)n(C(=O)N[C@H]2CCCc3ccccc32)c2ccccc21 [Example 199] | 0.9 nM | 40.1 nM
19 | CC(C)(C)[C@H](NC(=O)n1c(=O)n(CC2CCCCC2)c2cccc(F)c21)C(N)=O [Example 271] | 1.28 nM | 6.53 nM

Row | SMILES | Ki (human CB1 receptor [1]) | EC50 (human CB1 receptor [2])
20 | CC(C)(C)[C@H](NC(=O)n1c(=O)n(CC2CCOCC2)c2ccccc21)C(=O)NCCCO [Example 318] | 23.9 nM | 230 nM
21 | CC(C)(C)[C@H](NC(=O)n1c(=O)n(Cc2ccccc2)c2ccccc21)c1nnc(N)o1 [Example 359] | 3.06 nM | 79.2 nM
22 | CC(C)(C)[C@H](NC(=O)n1c(=O)n(CC2CCOCC2)c2ccccc21)C(=O)NC1CCC1 [Example 300] | 41 nM | 260 nM
23 | Cc1nc(C)c(CNC(=O)n2c(=O)n(CC3CCOCC3)c3ccccc32)s1 [Example 337] | 12.1 nM | 6490 nM
24 | CC(C)(C)[C@H](NC(=O)n1c(=O)n(CC2CCCCC2)c2ncccc21)C(N)=O [Example 226] | 5.34 nM | 62.1 nM
25 | CC(C)(C)[C@H](NC(=O)n1c(=O)n(CC2CCCCC2)c2cc(Cl)ccc21)C(N)=O [Example 170] | 0.28 nM | 1.86 nM
26 | CC(C)(C)[C@H](NC(=O)n1c(=O)n(CC2CCOCC2)c2cc(F)ccc21)C(N)=O [Example 290] | 19.2 nM | 25.1 nM
27 | CCCCn1c(=O)n(C(=O)N[C@H](C(N)=O)C(C)(C)C)c2ccccc21 [Example 292] | 2.09 nM | 75.1 nM
28 | CC(C)(C)[C@@H](CO)NC(=O)n1c(=O)n(CC2CCOCC2)c2cc(F)ccc21 [Example 301] | 5.25 nM | 268 nM
29 | Cc1nc(CNC(=O)n2c(=O)n(CC3CCOCC3)c3ccccc32)cs1 [Example 341] | 24.7 nM | 355 nM
30 | O=C(N[C@H]1CCCC[C@@H]1O)n1c(=O)n(CC2CCCCC2)c2ccccc21 [Example 191] | 10.5 nM | 394 nM
31 | CC(C)(C)[C@H](NC(=O)n1c(=O)n(Cc2ccccc2)c2ccccc21)C(N)=O [Example 348] | 5.64 nM | 60.1 nM
32 | CNC(=O)[C@@H](NC(=O)n1c(=O)n(CC2CCOCC2)c2ccccc21)C(C)(C)C [Example 303] | 5.71 nM | 36.6 nM
33 | CC(C)(C)[C@H](NC(=O)n1c(=O)n(Cc2ccccc2F)c2ccccc21)C(N)=O [Example 357] | 2.4 nM | 123 nM
34 | Cc1nc(C(C)NC(=O)n2c(=O)n(CC3CCOCC3)c3ccccc32)cs1 (centres unmarked) [Example 350] | 13.4 nM | 131 nM
35 | CC(C)(C)[C@H](NC(=O)n1c(=O)n(CC2CCOCC2)c2cc(F)ccc21)C(=O)NC1CC1 [Example 310] | 30.2 nM | 173 nM
36 | Cc1cccc2c1n(CC1CCCCC1)c(=O)n2C(=O)N[C@H](C(N)=O)C(C)(C)C [Example 174] | 0.32 nM | 8.3 nM
37 | CCCCCn1c(=O)n(C(=O)N[C@H](C(N)=O)C(C)(C)C)c2ccccc21 [Example 202] | 4.52 nM | 20.1 nM
